# Assay results from patent publication US12479927B2, “Compounds comprising cleavable linker and uses thereof” (priority 2017, dated 2025).
# Where two headings read alike, the source gives them in different places. Non-standard residues stand in square brackets, D forms with d. Residues, ends and D or L forms follow the SMILES beside them. Dolaproine = CO[C@@H]([C@@H]1CCCN1)[C@@H](C)C(=O)O; Dil = CC[C@H](C)[C@H](NC)[C@@H](CC(=O)O)OC; NMeV = CN[C@H](C(=O)O)C(C)C
# Experiments:
# KB cancer cells [1] = assay: cells; format: cell-based
# Protocol: KB cancer cells were collected and seeded in 24-well plates at a density of 30,000 cells per well in 2 mL of medium, and cultured for 24 hours. Then, the serial dilutions of compound C-1 obtained in Example 108 were treated from 30 nM to 0.0096 nM, the serial dilutions of compound C-2 obtained in Example 109 were treated from 1000 nM to 0.32 nM, serial dilutions of the compound C-3 obtained in Example 110 and the compound C-7 obtained in Example 114 were treated from 25 nM to 0.0016 nM, and serial dilutions of the drug MMAF-OMe were treated from 10 nM to 0.0097 nM. The serial dilutions of compounds C-5 and C-6 obtained in Example 112 and Example 113 were treated from 100 nM to 0.0001 nM, and the serial dilutions of drug seco-DUBA were treated from 100 nM to 0.001 nM. Serial dilutions of the compounds C-4 and C-9 obtained in Example 111 and Example 116 were treated from 1000 nM to 0.001 nM, and the serial dilutions of drug CBI dimer were treated by from 10 nM to 0.00001 nM. Serial dilutions of the compound C-8 obtained in Example 115 and the drug CBI-indole were treated from 100 nM to 0.0001 nM. After 72 hours, 96 hours, or 144 hours of incubation, 0.2 mL of 3-(4,5-dimethylthiazol-2-yl)-2,5-diphenyltetrazolium bromide (MTT) dye, dissolved in PBS buffer solution (5 mg/mL), was added to each well of the plates. The formazans formed by reduction of the MTT dye by mitochondrial oxidoreductases in the living cells were dissolved in DMSO, and measured using the absorbance at 550 nm.
# Human β-galactosidase = target: T1, Human β-galactosidase (Homo sapiens, UniProt P16278); assay: Enzymatic cleavage assay, Method 2; format: biochemical; conditions: recombinant enzyme; for Q part release t1/2(min): 100 μM
# T1 construct: purchased R&D 6464-GH-020
# T1 sequence (P16278 29-677): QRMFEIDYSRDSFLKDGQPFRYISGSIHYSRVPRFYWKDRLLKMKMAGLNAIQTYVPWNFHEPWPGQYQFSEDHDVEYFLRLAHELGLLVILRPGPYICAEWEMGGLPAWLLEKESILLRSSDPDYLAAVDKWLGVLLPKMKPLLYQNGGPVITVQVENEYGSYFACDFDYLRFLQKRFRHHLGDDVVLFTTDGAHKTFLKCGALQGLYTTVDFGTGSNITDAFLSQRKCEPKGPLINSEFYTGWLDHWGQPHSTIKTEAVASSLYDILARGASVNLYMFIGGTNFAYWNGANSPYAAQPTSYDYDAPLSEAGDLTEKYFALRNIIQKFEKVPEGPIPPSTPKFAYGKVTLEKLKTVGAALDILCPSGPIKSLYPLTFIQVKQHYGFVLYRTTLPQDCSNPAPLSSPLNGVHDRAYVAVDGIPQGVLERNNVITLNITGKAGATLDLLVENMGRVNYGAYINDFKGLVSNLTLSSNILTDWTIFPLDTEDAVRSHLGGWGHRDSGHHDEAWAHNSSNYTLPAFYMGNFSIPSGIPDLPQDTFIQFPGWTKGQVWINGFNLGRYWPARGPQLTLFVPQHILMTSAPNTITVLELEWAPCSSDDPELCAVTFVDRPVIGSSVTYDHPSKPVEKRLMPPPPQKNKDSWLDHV
# Protocol: Method 2) Human β-galactosidase
# MPS used as a standard material was prepared as a solution to have a concentration of 500 μM in PBS buffer solution. […] Then, 140 μL of 0.1 mg/mL enzyme solution was added thereto, thereby preparing an enzyme reaction solution in a total amount of 700 μL. The reaction mixture was incubated at 37° C. Human β-galactosidase enzyme (R&D 6464-GH-020) was used in the reaction mixture.
# KB cancer cells [2] = assay: In vitro analysis of protein-drug conjugate, KB; format: cell-based; conditions: 96 hours, read-out: KB cell IC50
# Protocol: KB cancer cells were collected and seeded in 24-well plates at a density of 30,000 cells per well in 2 mL of medium, and cultured for 24 hours. Then, the serial dilutions of compound C-1 obtained in Example 108 were treated from 30 nM to 0.0096 nM, the serial dilutions of compound C-2 obtained in Example 109 were treated from 1000 nM to 0.32 nM, serial dilutions of the compound C-3 obtained in Example 110 and the compound C-7 obtained in Example 114 were treated from 25 nM to 0.0016 nM, and serial dilutions of the drug MMAF-OMe were treated from 10 nM to 0.0097 nM. The serial dilutions of compounds C-5 and C-6 obtained in Example 112 and Example 113 were treated from 100 nM to 0.0001 nM, and the serial dilutions of drug seco-DUBA were treated from 100 nM to 0.001 nM. […] The formazans formed by reduction of the MTT dye by mitochondrial oxidoreductases in the living cells were dissolved in DMSO, and measured using the absorbance at 550 nm.
# KB, SKBR-3, BT-474, NCI-N87 cancer cells were seeded in 96-well plates at a density of 2,000 to 8,000 cells per well in 100 μL of medium, and cultured for 24 hours. […] Experiments were performed in a similar manner to Test Example 3 to quantify living cells 96 hours later, and results are shown in Tables 4 and 5 below.
# [3] = target: Escherichia coli β-galactosidase (Escherichia coli, UniProt P00722); assay: in vitro; conditions: recombinant enzyme
# Escherichia coli β-galactosidase, sequence (P00722 2-1024): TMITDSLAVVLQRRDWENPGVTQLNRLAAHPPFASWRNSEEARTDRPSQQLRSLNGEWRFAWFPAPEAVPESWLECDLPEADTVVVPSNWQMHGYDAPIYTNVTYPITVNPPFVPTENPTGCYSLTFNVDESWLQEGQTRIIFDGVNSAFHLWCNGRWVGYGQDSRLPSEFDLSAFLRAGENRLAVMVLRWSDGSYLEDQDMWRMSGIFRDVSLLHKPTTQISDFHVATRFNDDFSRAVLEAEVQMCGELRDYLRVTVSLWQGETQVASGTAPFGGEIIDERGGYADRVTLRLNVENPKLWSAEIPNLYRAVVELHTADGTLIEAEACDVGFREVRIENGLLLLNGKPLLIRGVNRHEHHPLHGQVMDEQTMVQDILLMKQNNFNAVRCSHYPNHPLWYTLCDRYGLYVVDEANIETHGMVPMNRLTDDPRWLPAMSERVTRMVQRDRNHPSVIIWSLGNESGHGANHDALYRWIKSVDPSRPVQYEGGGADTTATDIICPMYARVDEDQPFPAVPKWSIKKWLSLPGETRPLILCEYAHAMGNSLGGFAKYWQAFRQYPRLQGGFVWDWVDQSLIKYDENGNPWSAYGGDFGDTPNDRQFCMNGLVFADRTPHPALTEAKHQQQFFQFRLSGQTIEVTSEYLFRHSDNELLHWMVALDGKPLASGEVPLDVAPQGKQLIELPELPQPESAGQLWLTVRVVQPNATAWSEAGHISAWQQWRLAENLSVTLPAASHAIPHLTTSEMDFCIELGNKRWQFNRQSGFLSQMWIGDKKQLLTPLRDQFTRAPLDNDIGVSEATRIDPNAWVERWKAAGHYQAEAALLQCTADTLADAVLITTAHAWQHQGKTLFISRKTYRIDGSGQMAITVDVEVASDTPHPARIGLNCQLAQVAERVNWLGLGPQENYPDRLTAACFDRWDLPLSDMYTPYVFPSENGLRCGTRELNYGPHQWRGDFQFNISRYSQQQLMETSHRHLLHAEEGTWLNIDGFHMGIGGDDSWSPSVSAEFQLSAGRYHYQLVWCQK
# Protocol: Method 1. Escherichia coli β-galactosidase
# MPS used as a standard material was dissolved in PBS buffer solution to make 500 uM solution. […] This was followed by the addition of enzyme solution (14 μL of 1 mg/mL). When comparing with human β-galactosidase, 21 μL of enzyme solution (1 mg/mL) was added to achieve the same molar concentration, and the compound of the present invention and MPS each having an amount of 140 μL and […] of the buffer solution (pH 7.4) were mixed. The resulting reaction mixture was incubated at 37° C. Escherichia coli β-galactosidase enzyme (Sigma G4155) was used in the reaction mixture. The enzyme reaction solution was aliquoted at 0 min before the reaction and at a predetermined time after the reaction, respectively, wherein each aliquot was 70 μL. Then, the remaining compound of the present invention or MPS, and a material liberated by the enzyme reaction were quantitatively analyzed by HPLC.
# [4] = MTT, 72 hours, 96 hours, or 144 hours of incubation, read-out: KB cell IC50
smiles,measurement,setting,value
CCc1c2c(nc3ccc(OS(=O)(=O)Oc4cc(C(=O)NCCOCCOCCOCCn5cc(CCC(=O)N[C@H](CCCCN)C(=O)NCCOCCOCCNC(=O)CC[C@@H](NC(=O)c6ccc(NCc7cnc8nc(N)[nH]c(=O)c8n7)cc6)C(=O)O)nn5)ccc4O[C@@H]4O[C@H](CO)[C@H](O)[C@H](O)[C@H]4O)cc13)-c1cc3c(c(=O)n1C2)COC(=O)[C@]3(O)CC [Compound C-2],IC50,KB cancer cells [1]; [4],> 500 nM
COc1cc2[nH]c(C(=O)N3C[C@@H](CCl)c4c3cc(OS(=O)(=O)Oc3cc(C(=O)NCCOCCOCCOCCn5cc(CCC(=O)N[C@H](CCCCN)C(=O)NCCOCCOCCNC(=O)CC[C@@H](NC(=O)c6ccc(NCc7cnc8nc(N)[nH]c(=O)c8n7)cc6)C(=O)O)nn5)ccc3O[C@@H]3O[C@H](CO)[C@H](O)[C@H](O)[C@H]3O)c3cccc(C)c43)cc2cc1OCCN(C)C [Compound C-8],IC50,KB cancer cells [1]; [4],0.12 nM
CC(C)(C)OC(=O)NC(Cc1ccc(OS(=O)(=O)Oc2ccccc2O[C@@H]2O[C@H](C(=O)O)[C@@H](O)[C@H](O)[C@H]2O)cc1)C(=O)O (stereo partly shown) [Compound A-3],half-life at 100 μM,"Human β-galactosidase; Method 2, pH 7.4, 37° C., HPLC, read-out: TG release t1/2(min)",10.7 min
"Cc1cccc2c(O)cc3c(c12)[C@H](CCl)CN3C(=O)c1cn2cc(NC(=O)c3ccc(O)cc3)ccc2n1 [Seco-DUBA, reference compound]",IC50,"KB cancer cells [1]; Homo sapiens, KB, MTT, 72 hours, 96 hours, or 144 hours of incubation, read-out: KB cell IC50",0.18 nM
NCCCC[C@@H](NC(=O)CCc1cn(CCOCCOCCOCCNC(=O)c2ccc(O[C@@H]3O[C@H](CO)[C@H](O)[C@H](O)[C@H]3O)c(OS(=O)(=O)Oc3cc4c(c5ccccc35)[C@H](CCl)CN4C(=O)CCCC(=O)N3C[C@@H](CCl)c4c3cc(O[C@@H]3O[C@H](CO)[C@H](O)[C@H](O)[C@H]3O)c3ccccc43)c2)nn1)C(=O)NCCOCCOCCNC(=O)CC[C@@H](NC(=O)c1ccc(NCc2cnc3nc(N)[nH]c(=O)c3n2)cc1)C(=O)O [Compound C-4],IC50,KB cancer cells [1]; [4],0.02 nM
"COc1cc2[nH]c(C(=O)N3C[C@@H](CCl)c4c3cc(O)c3cccc(C)c43)cc2cc1OCCN(C)C [CBI-indole, reference compound]",IC50,"KB cancer cells [1]; Homo sapiens, KB, read-out: KB cell IC50(nM)",0.07 nM
CC(=O)Oc1cc2c(c3ccccc13)[C@H](CCl)CN2C(=O)CCCC(=O)N1C[C@@H](CCl)c2c1cc(OS(=O)(=O)Oc1cc(C(=O)NCCOCCOCCOCCn3cc(CCC(=O)N[C@H](CCCCN)C(=O)NCCOCCOCCNC(=O)CC[C@@H](NC(=O)c4ccc(NCc5cnc6nc(N)[nH]c(=O)c6n5)cc4)C(=O)O)nn3)ccc1O[C@@H]1O[C@H](CO)[C@H](O)[C@H](O)[C@H]1O)c1ccccc21 [Compound C-9],IC50,KB cancer cells [1]; [4],0.1 nM
CC[C@H](C)[C@@H]([C@@H](CC(=O)N1CCC[C@H]1[C@H](OC)[C@@H](C)C(=O)N[C@@H](Cc1ccccc1)C(=O)OC)OC)N(C)C(=O)[C@@H](NC(=O)[C@@H](NC)C(C)C)C(C)C [MMAF-OMe] (H-[NMeV]V[Dil][Dolaproine]F-OMe),IC50,KB cancer cells [2]; values marked * (asterisk not explained),0.16 nM
same,IC50,KB cancer cells [2]; values without asterisk,0.44 nM
same,IC50,KB cancer cells [1]; [4],0.35 ± 0.07 nM
NCCCC[C@@H](NC(=O)CCc1cn(CCOCCOCCOCCNC(=O)c2ccc(O[C@@H]3O[C@H](CO)[C@H](O)[C@H](O)[C@H]3O)c(OS(=O)(=O)Oc3cc4c(c5ccccc35)[C@H](CCl)CN4C(=O)c3cn4cc(NC(=O)c5ccc(O)cc5)ccc4n3)c2)nn1)C(=O)NCCOCCOCCNC(=O)CC[C@@H](NC(=O)c1ccc(NCc2cnc3nc(N)[nH]c(=O)c3n2)cc1)C(=O)O [Compound C-6],IC50,KB cancer cells [1]; [4],0.45 nM
CCc1c2c(nc3ccc(OS(=O)(=O)Oc4cc(C(=O)NCCOCCOCCOCCN=[N+]=[N-])ccc4O[C@@H]4O[C@H](CO)[C@H](O)[C@H](O)[C@H]4O)cc13)-c1cc3c(c(=O)n1C2)COC(=O)[C@]3(O)CC [Compound B-2],half-life at 100 μM,[3]; pH 5,5.75 min
same,half-life at 100 μM,[3]; pH 7.4,0.28 min
same,Q part release t1/2(min),Human β-galactosidase; pH 5,39.41 min
same,Q part release t1/2(min),Human β-galactosidase; pH 7.4,112.2 min
same,half-life at 100 μM,Human β-galactosidase; pH 5,5.33 min
